A short description of data set [1]: Plasma metabolic stability test in 10% monkey plasma diluent. To be noted: 37° C.
Data set [2] is described as follows: Metabolism in 10% diluted plasma, mouse. To be noted: 10% diluted mouse plasma.
The subject of data set [3] is monkey platelet aggregation. Put plainly: Inhibitory effect on monkey platelet aggregation after transdermal administration. The conditions noted are these: cynomolgus monkeys, transdermal daily for four weeks (70 mg/kg; comparator 60 mg/kg), inducer 1 mM arachidonic acid. Type of data set: in vivo. How it is done: The dose volume for a monkey was calculated based on its weight. The hair on the monkey's back was shaved, and the drug was evenly applied to the bare skin. The drug was administered continuously every day for four weeks. Blank blood was collected before administration, and blood was collected once a week after administration to detect the platelet aggregation ability (the inducer was 1 mM arachidonic acid).

Data set [4] in a line: Metabolism in 10% diluted plasma, rat. To be noted: 10% diluted rat plasma.
A short description of the next data set: in vitro. The conditions noted are these: monkey, 10% monkey plasma diluent.

The structures appear in SMILES notation.

Turning to `CCN(CC)CCOC(=O)c1ccccc1OC(C)=O.Cl`, the “concentration of the parent drug” value in data set [1] (10 min) was 3.09 µg/mL; in data set [1] (30 min), “undetectable”. In addition, the “Highest acetylsalicylic acid concentration in plasma” value in data set [2] and in data set [4] was “BLOQ” each time. Moreover, in data set [3], the “inhibitory effect on platelet aggregation” value is “cannot inhibit platelet aggregation effectively”. For the same compound, the platelet aggregation rate result in data set [3] is listed as “about 50%”. In addition, the C0 at 0 min, 1 μM/mL in “in vitro” was 262 µg/mL.

The values above are taken from patent US12435037B2, “Acetylsalicylic acid derivative and application thereof” (Zhejiang Hanmai Pharmaceutical Technology Co., Ltd., priority 2018, dated 2025).
